Experimental data published in article PMC4894417, “Quantitative High-Throughput Profiling of Environmental Chemicals and Drugs that Modulate Farnesoid X Receptor” (Scientific Reports, 2014).
Read-outs that look alike come from different tables or passages of the source. Each block holds one molecule with its values, some of them ahead of it.

Tests used:
[1] = tested on: FXR-UAS-bla HEK293T cells; assay: Cell viability assay (CellTiter Glo) in the same well as FXR-bla; conditions: for Cell viability IC50: Table 1, mean ± SD of 3 experiments
[2] = biological target: T1, human FXR (Homo sapiens, UniProt Q96RI1); assay: FXR-bla reporter gene assay, antagonist mode (CDCA-induced transactivation); conditions: for FXR antagonist activity: FXR-bla assay
[3] = biological target: vitamin D receptor (VDR) (Homo sapiens, UniProt P11473); assay: VDR-bla reporter gene assay (agonist and antagonist modes)
[4] = biological target: T1, human FXR; assay: FXR-bla reporter gene assay, agonist mode (qHTS); conditions: for FXR-bla, agonist EC50: Table 1, confirmed compounds, mean ± SD of 3 experiments
[5] = tested on: FXR-UAS-bla HEK293T cells
[6] = biological target: peroxisome proliferator-activated receptor gamma (PPARγ) (Homo sapiens, UniProt P37231); assay: PPARγ-bla reporter gene assay (agonist and antagonist modes)
[7] = biological target: T2, FXR-LBD (Homo sapiens, UniProt Q96RI1); assay: FXR TR-FRET coactivator recruitment assay, antagonist mode (50 μM CDCA); type: biochemical
T2 construct: The glutathione S-transferase (GST)-tagged FXR-LBD protein; purchased Life Technologies
T2 sequence (Q96RI1 262-486 limits assumed): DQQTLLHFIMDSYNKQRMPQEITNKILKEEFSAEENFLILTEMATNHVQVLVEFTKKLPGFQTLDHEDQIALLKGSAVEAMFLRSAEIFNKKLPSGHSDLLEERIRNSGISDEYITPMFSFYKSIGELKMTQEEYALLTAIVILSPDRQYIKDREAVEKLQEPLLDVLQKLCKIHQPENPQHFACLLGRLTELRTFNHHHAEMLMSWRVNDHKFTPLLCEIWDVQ

[8] = biological target: T2, FXR-LBD; assay: FXR TR-FRET coactivator recruitment assay, agonist mode; type: biochemical; conditions: Table 1; coactivator SRC2-2 recruitment
[9] = Table S1, primary screening, 50 µM CDCA
[10] = read-out: FXR agonist mode EC50, Table S1, primary screening

T1 sequence (Q96RI1 with tags, fused parts or gaps limits assumed): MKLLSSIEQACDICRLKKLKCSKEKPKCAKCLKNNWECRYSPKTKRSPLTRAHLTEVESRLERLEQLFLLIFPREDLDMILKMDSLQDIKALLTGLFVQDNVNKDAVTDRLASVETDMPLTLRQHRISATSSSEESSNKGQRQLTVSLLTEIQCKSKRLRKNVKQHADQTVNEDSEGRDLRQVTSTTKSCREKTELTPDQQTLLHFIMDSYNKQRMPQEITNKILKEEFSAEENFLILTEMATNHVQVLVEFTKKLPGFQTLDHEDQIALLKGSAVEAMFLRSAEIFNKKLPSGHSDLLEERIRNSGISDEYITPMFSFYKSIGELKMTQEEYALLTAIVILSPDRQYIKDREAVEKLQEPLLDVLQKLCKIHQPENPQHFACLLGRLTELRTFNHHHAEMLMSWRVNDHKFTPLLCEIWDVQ
vitamin D receptor (VDR), sequence (P11473 with tags, fused parts or gaps limits assumed): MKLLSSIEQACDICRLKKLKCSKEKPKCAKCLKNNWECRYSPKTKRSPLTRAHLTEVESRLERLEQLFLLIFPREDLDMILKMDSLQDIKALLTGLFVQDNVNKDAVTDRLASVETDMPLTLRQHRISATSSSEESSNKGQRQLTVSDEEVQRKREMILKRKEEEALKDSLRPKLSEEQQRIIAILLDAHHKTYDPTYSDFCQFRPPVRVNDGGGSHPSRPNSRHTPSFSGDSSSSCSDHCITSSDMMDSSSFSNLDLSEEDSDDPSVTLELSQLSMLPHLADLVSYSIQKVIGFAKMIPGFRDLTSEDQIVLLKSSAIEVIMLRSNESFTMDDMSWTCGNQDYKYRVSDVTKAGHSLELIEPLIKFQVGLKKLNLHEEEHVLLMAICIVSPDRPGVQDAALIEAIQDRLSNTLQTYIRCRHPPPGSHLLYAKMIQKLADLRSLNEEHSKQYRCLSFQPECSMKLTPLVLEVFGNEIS
peroxisome proliferator-activated receptor gamma (PPARγ), sequence (P37231 with tags, fused parts or gaps limits assumed): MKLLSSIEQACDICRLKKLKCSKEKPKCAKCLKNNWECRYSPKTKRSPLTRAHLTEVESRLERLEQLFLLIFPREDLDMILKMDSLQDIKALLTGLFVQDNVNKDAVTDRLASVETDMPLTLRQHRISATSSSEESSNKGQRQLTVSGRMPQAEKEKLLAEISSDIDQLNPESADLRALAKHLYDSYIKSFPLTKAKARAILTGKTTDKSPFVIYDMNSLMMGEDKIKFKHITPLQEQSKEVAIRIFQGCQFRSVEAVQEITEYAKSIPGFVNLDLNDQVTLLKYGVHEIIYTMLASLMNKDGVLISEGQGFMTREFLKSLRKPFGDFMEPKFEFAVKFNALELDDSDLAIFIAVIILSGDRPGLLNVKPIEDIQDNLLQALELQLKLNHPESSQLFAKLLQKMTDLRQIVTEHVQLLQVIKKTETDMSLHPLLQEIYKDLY

Molecule: CC(C)[C@H](C(=O)OC(C#N)c1cccc(Oc2ccccc2)c1)c1ccc(OC(F)F)cc1 (stereo partly drawn) [Flucythrinate]
- Cytotoxicity IC50 ([1]; Table S1, primary screening): Inactive
- FXR antagonist mode Efficacy [2]: 37 ± 9
- IC50 ([2]; FXR antagonist mode IC50): 31.4 ± 20.5 µM
- VDR activity [3]: antagonist activity
- FXR agonist mode EC50 ([4]; Table S1, primary screening): Inactive

Molecule: CC(C)[C@H](Nc1ccc(C(F)(F)F)cc1Cl)C(=O)OC(C#N)c1cccc(Oc2ccccc2)c1 (stereo partly drawn) [Fluvalinate]
- Cytotoxicity IC50 ([1]; Table S1, primary screening): Inactive
- FXR antagonist mode Efficacy [2]: 53 ± 3
- IC50 ([2]; FXR antagonist mode IC50): 30.3 ± 12 µM
- FXR agonist mode EC50 ([4]; Table S1, primary screening): Inactive

Molecule: O=c1c(-c2ccc(O)cc2)coc2cc(O)cc(O)c12 [Genistein]
- IC50 ([2]; FXR antagonist mode IC50): 22.9 ± 3.16 µM
- FXR antagonist mode Efficacy [2, 9]: 57 ± 6%
- Cytotoxicity IC50 [5]: Inactive
- FXR agonist mode EC50 ([4]; Table S1, primary screening): Inactive

- IC50 [2]: 15.5 ± 9.59 µM
- FXR antagonist Efficacy ([2]; Table S3, 50 µM CDCA): -71 ± 10%
- FXR agonist mode EC50 ([4]; Table S1, primary screening): Inactive
Molecule: COC(=O)C1=C(C)NC(C)=C(C(=O)OC(C)(C)CN(C)CCC(c2ccccc2)c2ccccc2)C1c1cccc([N+](=O)[O-])c1 (stereo not drawn) [Lercanidipine]
- Cytotoxicity IC50 ([1]; Table S1, primary screening): Inactive

Molecule: COCCOC(=O)C1=C(C)NC(C)=C(C(=O)OC(C)C)C1c1cccc([N+](=O)[O-])c1 (stereo not drawn) [Nimodipine]
- Cytotoxicity IC50 [5]: Inactive

- IC50 [2]: 32.6 ± 20.2 µM
- FXR antagonist activity ([2]; CDCA-induced): antagonists
- FXR antagonist mode Efficacy [2, 9]: 73 ± 29%
- FXR agonist mode EC50 ([4]; Table S1, primary screening): Inactive
Molecule: COC(=O)C1=C(C)NC(C)=C(C(=O)OCC(C)C)C1c1ccccc1[N+](=O)[O-] (stereo not drawn) [Nisoldipine]
- Cytotoxicity IC50 ([1]; Table S1, primary screening): Inactive

Molecule: COC(=O)Nc1nc2ccc(C(=O)c3cccs3)cc2[nH]1 [Nocodazole]
- Cell viability IC50 [1]: Inactive
- PPARγ activity [6]: inhibiting β-lactamase expression
- FXR antagonist Efficacy [2]: 54 ± 2%
- FXR antagonist activity ([2]; CDCA-induced): inhibiting β-lactamase expression
- IC50 ([2]; FXR-bla, antagonist IC50): 0.29 µM
- IC50 ([2]; IC50, FXR-bla antagonist mode, primary screening, CDCA-induced): 0.32 µM
- VDR activity [3]: inhibiting β-lactamase expression
- FXR TR-FRET, antagonist IC50 [7]: Inactive
- FXR-bla, agonist EC50 [4]: Inactive
- FXR TR-FRET, agonist EC50 [8]: Inactive

Molecule: CCCCc1ccc2[nH]c(NC(=O)OC)nc2c1 [Parbendazole]
- Cytotoxicity IC50 ([1]; Table S1, primary screening): Inactive
- FXR antagonist mode Efficacy [2]: 43 ± 3%
- IC50 ([2]; FXR antagonist mode IC50): 0.16 ± 0.14 µM
- FXR agonist mode EC50 ([4]; Table S1, primary screening): Inactive

Molecule: CC(C)=CC1C(C(=O)OCc2cccc(Oc3ccccc3)c2)C1(C)C (stereo not drawn) [Phenothrin]
- Cytotoxicity IC50 ([1]; Table S1, primary screening): Inactive
- FXR antagonist mode Efficacy [2]: 27 ± 7
- IC50 [2]: 25.4 ± 11.8 µM
- FXR agonist mode EC50 ([4]; Table S1, primary screening): Inactive

Molecule: CO[C@H]1C[C@H](O[C@@H]2/C(C)=C/C[C@@H]3C[C@@H](C[C@]4(CC[C@H](C)[C@@H](C5CCCCC5)O4)O3)OC(=O)[C@@H]3C=C(C)/C(=N/O)[C@H]4OC/C(=C\C=C\[C@@H]2C)[C@]43O)O[C@@H](C)[C@@H]1O [Selamectin]
- FXR antagonist Efficacy [2]: 45 ± 6%
- FXR antagonist mode Efficacy [2]: 45 ± 6%
- IC50 ([2]; FXR antagonist mode IC50): 2.48 ± 0.82 µM
- Cytotoxicity IC50 [5]: Inactive
- FXR agonist Efficacy [4]: 68 ± 5%
- FXR agonist mode Efficacy [4]: 68 ± 5%
- EC50 ([4]; FXR agonist mode EC50): 5.98 ± 0.39 µM

- IC50 [2]: 0.1 ± 0.04 µM
- FXR-bla, antagonist Efficacy ([2]; Table 1, inhibition as percent of positive control (guggulsterone), 50 μM CDCA): 57 ± 7%
- FXR antagonist Efficacy ([2]; Table S3, 50 µM CDCA): 59 ± 2%
- FXR TR-FRET, antagonist IC50 ([7]; Table 1, in the presence of 50 μM CDCA): Inactive
- FXR-bla, agonist EC50 [4]: Inactive
- FXR TR-FRET, agonist EC50 [8]: Inactive
Molecule: CC[C@]1(O)C[C@@H]2CN(CCc3c([nH]c4ccccc34)[C@@](C(=O)OC)(c3cc4c(cc3OC)N(C)[C@H]3[C@@](O)(C(=O)OC)[C@H](OC(C)=O)[C@]5(CC)C=CCN6CC[C@]43[C@@H]65)C2)C1 [Vinblastine]
- Cell viability IC50 [1]: Inactive

Molecule: AM580
- Cytotoxicity IC50 ([1]; Table S1, primary screening): Inactive
- FXR antagonist mode IC50 [2]: Inactive
- FXR agonist mode Efficacy [4]: 68 ± 37
- FXR agonist activity ([4]; FXR-bla assay): selectively induced transactivation of FXR
- EC50 [4, 10]: 45.4 ± 3.07 µM

Molecule: Emamectin
- Cytotoxicity Efficacy ([1]; Table S1, primary screening): 116 ± 14%
- IC50 ([1]; read-out: Cytotoxicity IC50, Table S1, primary screening): 7.54 ± 1.29 µM
- FXR antagonist mode Efficacy [2]: 64 ± 19%
- IC50 ([2]; read-out: FXR antagonist mode IC50): 5.81 ± 2.68 µM
- FXR agonist mode Efficacy [4]: 56 ± 26%
- EC50 [4, 10]: 24.6 ± 8.97 µM

- FXR antagonist mode Efficacy [2, 9]: 110 ± 6%
- FXR antagonist Efficacy ([2]; Table S3, 50 µM CDCA): 110 ± 6%
- IC50 ([2]; read-out: FXR antagonist mode IC50, Table S1, primary screening, 50 µM CDCA): 14.5 ± 0.98 µM
- EC50 [5]: 14 ± 1.6 µM
- IC50 [5]: 14 ± 1.6 µM
- FXR agonist mode Efficacy ([4]; Table S1, primary screening, CDCA 100%): 41 ± 1%
- FXR agonist Efficacy ([4]; Table S3): 41 ± 1%
- EC50 [4, 10]: 5.33 ± 0.35 µM
Molecule: Eprinomectin B1a
- Cytotoxicity Efficacy [5]: 108 ± 4%
